One series concerns Trypanosoma cruzi. The series can be described thus: Antitrypanosomal activity against nifurtimox-sensitive Tulahuen CL2 amastigotes expressing beta galactosidase infected in human MRC5 cells assessed as inhibition of parasite growth using chlorophenol red beta-D-galactopyranoside as substrate and measured after 7 days by spectrophotometric analysis. The following applies: Tulahuen CL2, MRC5, 168 h. Type of series: functional, organism-based.

The subject of series [1] is Leishmania infantum. The series can be described thus: Antileishmanial activity against intracellular Leishmania infantum MHOM/MA(BE)/67 ITMAP263 amastigotes infected in Swiss mouse peritoneal macrophage assessed as inhibition of parasite growth measured after 5 days by geimsa staining based microscopic analysis. Type of series: functional, organism-based. The following applies: MHOM/MA(BE)/67 ITMAP263, Peritoneal macrophage, 120 h.

A short description of series [2]: Cytotoxicity against Swiss mouse peritoneal macrophages assessed as reduction in cell viability measured after 5 days by microscopic analysis. The following applies: time 5 day. Type of series: toxicity, cell-based, Peritoneal macrophage.
The nature of series [3]: Selectivity index, ratio of CC50 for Cytotoxicity against Swiss mouse peritoneal macrophages to EC50 for intracellular Leishmania infantum MHOM/MA(BE)/67 ITMAP263 amastigotes infected in Swiss mouse peritoneal macrophages. Type of series: toxicity, cell-based. The following applies: read-out: Ratio CC50/EC50.
Series [4] is described as follows: Cytotoxicity against human MRC5 cells assessed as reduction in cell viability incubated for 3 days by resazurin dye based fluorescence analysis. Type of series: toxicity. To be noted: time 3 day. In general terms: The colour change of resazurin is a common sign of viable cells or microbes.
Series [5] is described as follows: Selectivity index, ratio of CC50 for cytotoxicity against human MRC5 cells to EC50 for Trypanosoma cruzi Tulahuen CL2 amastigotes expressing beta galactosidase infected in human MRC5 cells. Type of series: toxicity, cell-based. The following applies: read-out: Ratio CC50/EC50.
Series [6] has as its system Leishmania infantum. The series can be described thus: Antileishmanial activity against sodium stibogluconate and potassium antimonyl tartrate resistant intracellular Leishmania infantum MHOM/FR/96/LEM3323-CI4 promastigotes infected in Swiss mouse peritoneal macrophages assessed as inhibition of parasite growth measured after 96 hrs by microscopic analysis. Type of series: functional, organism-based. The following applies: MHOM/FR/96/LEM3323-CI4, Peritoneal macrophage.

Series [7] concerns Leishmania infantum. The series can be described thus: Antileishmanial activity against sodium stibogluconate, potassium antimonyl tartrate and MIL resistant intracellular Leishmania infantum MHOM/FR/96/LEM3323-CI4 MIL5C13 promastigotes infected in Swiss mouse peritoneal macrophages assessed as inhibition of parasite growth measured after 96 hrs by microscopic analysis. The following applies: MHOM/FR/96/LEM3323-CI4 MIL5C13, Peritoneal macrophage. Type of series: functional, organism-based.

The subject of series [8] is Leishmania infantum. Briefly: Antileishmanial activity against sodium stibogluconate, potassium antimonyl tartrate and PMM resistant intracellular Leishmania infantum MHOM/FR/96/LEM3323-CI4 PMM promastigotes infected in Swiss mouse peritoneal macrophages assessed as inhibition of parasite growth measured after 96 hrs by microscopic analysis. To be noted: Peritoneal macrophage. Type of series: functional, organism-based.

Series [9] is described as follows: Metabolic stability in golden hamster liver microsomes S9 fraction assessed as CYP450-mediated metabolism by measuring parent compound remaining measured after 60 mins in presence of NADPH. Type of series: ADME, subcellular, Mesocricetus auratus. The following applies: read-out: Stability. A general note: Liver microsomes are vesicles of endoplasmic reticulum, rich in cytochrome P450 enzymes.

A short description of series [10]: Metabolic stability in golden hamster liver microsomes S9 fraction assessed as CYP450-mediated metabolism by measuring parent compound remaining measured after 30 mins in presence of NADPH. Type of series: ADME, subcellular, Mesocricetus auratus. The following applies: read-out: Stability.
The nature of series [11]: Metabolic stability in golden hamster liver microsomes S9 fraction assessed as CYP450-mediated metabolism by measuring parent compound remaining measured after 15 mins in presence of NADPH. Type of series: ADME, subcellular, Mesocricetus auratus. The following applies: read-out: Stability.
Series [12] in a line: Metabolic stability in mouse liver microsomes S9 fraction assessed as UGT-mediated metabolism by measuring parent compound remaining measured after 60 mins in presence of NADPH. Type of series: ADME, subcellular. The following applies: read-out: Stability.
The nature of series [13]: Metabolic stability in mouse liver microsomes S9 fraction assessed as UGT-mediated metabolism by measuring parent compound remaining measured after 30 mins in presence of NADPH. The following applies: read-out: Stability. Type of series: ADME, subcellular.
Series [14] is described as follows: Metabolic stability in mouse liver microsomes S9 fraction assessed as CYP450-mediated metabolism by measuring parent compound remaining measured after 60 mins in presence of NADPH. Type of series: ADME, subcellular. The following applies: read-out: Stability.
Series [15] is described as follows: Metabolic stability in mouse liver microsomes S9 fraction assessed as CYP450-mediated metabolism by measuring parent compound remaining measured after 30 mins in presence of NADPH. Type of series: ADME, subcellular. To be noted: read-out: Stability.
Series [16] in a line: Metabolic stability in mouse liver microsomes S9 fraction assessed as CYP450-mediated metabolism by measuring parent compound remaining measured after 15 mins in presence of NADPH. Type of series: ADME, subcellular. The following applies: read-out: Stability.
A short description of series [17]: Metabolic stability in mouse liver microsomes S9 fraction assessed as UGT-mediated metabolism by measuring parent compound remaining measured after 15 mins in presence of NADPH. Type of series: ADME, subcellular. To be noted: read-out: Stability.
Series [18] can be described thus: Metabolic stability in golden hamster liver microsomes S9 fraction assessed as UGT-mediated metabolism by measuring parent compound remaining measured after 15 mins in presence of NADPH. To be noted: read-out: Stability. Type of series: ADME, subcellular, Mesocricetus auratus.
A short description of series [19]: Metabolic stability in golden hamster liver microsomes S9 fraction assessed as UGT-mediated metabolism by measuring parent compound remaining measured after 30 mins in presence of NADPH. Type of series: ADME, subcellular, Mesocricetus auratus. To be noted: read-out: Stability.
Series [20] in a line: Metabolic stability in golden hamster liver microsomes S9 fraction assessed as UGT-mediated metabolism by measuring parent compound remaining measured after 60 mins in presence of NADPH. Type of series: ADME, subcellular, Mesocricetus auratus. To be noted: read-out: Stability.
The target of series [21] is T1, Cytochrome P450 (Homo sapiens, UniProt P04798+P05177+P05181+P08684+P10632+P10635+P11509+P11712+P13584+P20813+P20815+P20853+P24462+P24903+P33260+P33261+P51589+P78329+P98187+Q02928+Q08477+Q16678+Q16696+Q5TCH4+Q6VVX0+Q7Z449+Q8TAV3+Q96SQ9+Q9HB55). Briefly: Metabolic stability in human liver microsomes S9 fraction assessed as CYP450-mediated metabolism by measuring parent compound remaining measured after 15 mins in presence of NADPH. Type of series: ADME, subcellular. To be noted: read-out: Stability.

The target of series [22] is T1, Cytochrome P450. The series can be described thus: Metabolic stability in human liver microsomes S9 fraction assessed as CYP450-mediated metabolism by measuring parent compound remaining measured after 30 mins in presence of NADPH. Type of series: ADME, subcellular. The following applies: read-out: Stability.
The target in series [23] is T1, Cytochrome P450. Briefly: Metabolic stability in human liver microsomes S9 fraction assessed as CYP450-mediated metabolism by measuring parent compound remaining measured after 60 mins in presence of NADPH. Type of series: ADME, subcellular. To be noted: read-out: Stability.
The target of series [24] is T2, UDP-glucuronosyltransferases (UGTs) (Homo sapiens, UniProt O60656+O75310+O75795+P06133+P0DTE4+P0DTE5+P16662+P19224+P22309+P22310+P35503+P35504+P36537+P54855+Q6UWM9+Q9BY64+Q9HAW7+Q9HAW8+Q9HAW9). Briefly: Metabolic stability in human liver microsomes S9 fraction assessed as UGT-mediated metabolism by measuring parent compound remaining measured after 15 mins in presence of NADPH. Type of series: ADME, subcellular. To be noted: read-out: Stability.

Series [25] addresses T2, UDP-glucuronosyltransferases (UGTs). The series can be described thus: Metabolic stability in human liver microsomes S9 fraction assessed as UGT-mediated metabolism by measuring parent compound remaining measured after 30 mins in presence of NADPH. Type of series: ADME, subcellular. To be noted: read-out: Stability.
Series [26] shares this target. The series can be described thus: Metabolic stability in human liver microsomes S9 fraction assessed as UGT-mediated metabolism by measuring parent compound remaining measured after 60 mins in presence of NADPH. Type of series: ADME, subcellular. The following applies: read-out: Stability.

Consider 7 compounds from ChEMBL document CHEMBL5120865, “Exploration of 6-methyl-7-(Hetero)Aryl-7-Deazapurine ribonucleosides as antileishmanial agents” (Eur J Med Chem, 2022).

Usually EC50 stands for the concentration needed to bring the measured effect to its halfway point. As usually defined, the CC50 is the concentration giving 50% cytotoxicity.

Each structure is given as a SMILES string.

As to `O=C(Cn1ccnc1[N+](=O)[O-])NCc1ccccc1` [BENZNIDAZOLE], in the series with Trypanosoma cruzi, the EC50 came to 2.28 µM.

Consider `Cc1ncnc2c1c(-c1cncnc1)cn2[C@@H]1O[C@H](CO)[C@@H](O)[C@H]1O`, for which the EC50 in the series on Leishmania infantum [1] came out at 6.5 µM; in the series with Trypanosoma cruzi (read-out: EC50) it was 7.3 µM. Also, the CC50 at 120 h in series [2] was more than 64 µM. Moreover, the selectivity ratio was more than 9.9 in [3] and more than 8.8 in series [5]. Further, in [4], the CC50 at 72 h is more than 64 µM.

Take `Cc1ncnc2c1c(-c1ncccc1Cl)cn2[C@@H]1O[C@H](CO)[C@@H](O)[C@H]1O`: the EC50 stood at 1.2 µM with Leishmania infantum [1]; 0.67 µM with Leishmania infantum [6]; 0.73 µM in the series with Leishmania infantum [7]; 1.46 µM in the series with Leishmania infantum [8]; 0.7 µM in the series on Trypanosoma cruzi (read-out: EC50). In series [2], the CC50 at 120 h is more than 64 µM. Also, the values for the selectivity ratio in series [3] and in series [5] were more than 50 and more than 91, respectively. In addition, the CC50 at 72 h in series [4] was more than 64 µM. In addition, the remaining at 1 h was determined as 90% in series [9]; 98% in [12]; 74% in [14]; 96% in series [20]; 99% at Cytochrome P450 [23]; 101% in series [26]. Further, the remaining at 0.5 h in series [10] turned out to be 98%; in series [13] it was 91%; in series [15] it was 83%; in series [19] it was 96%; on Cytochrome P450 [22] it was 100%; in [25] it was 95%. The remaining at 0.25 h in [11] is 86%; in series [16], 98%; in series [17], 92%; in [18], 95%; at Cytochrome P450 [21], 107%; in series [24] it was 93%.

Take `Cc1ncnc2c1c(-c1cccc3cccnc13)cn2[C@@H]1O[C@H](CO)[C@@H](O)[C@H]1O`: the EC50 was 3.7 µM with Leishmania infantum [1] and 9.6 µM with Trypanosoma cruzi (read-out: EC50). The CC50 at 120 h in [2] was more than 64 µM. Further, the selectivity ratio in series [3] was more than 17; in series [5], more than 6.7. Also, in [4], the CC50 at 72 h was more than 64 µM.

With `Cc1ncnc2c1c(/C=C/c1ccccn1)cn2[C@@H]1O[C@H](CO)[C@@H](O)[C@H]1O`, the EC50 with Leishmania infantum [1] worked out at 19 µM. In [2], the CC50 at 120 h is more than 64 µM. The selectivity ratio in [3] was more than 3.37. The CC50 at 72 h in series [4] is more than 64 µM.

As for `Cc1ncnc2c1c(-c1ncccn1)cn2[C@@H]1O[C@H](CO)[C@@H](O)[C@H]1O`, the values for the EC50 with Leishmania infantum [1] and in the series on Trypanosoma cruzi (read-out: EC50) were 8.2 µM and 5.9 µM, respectively. Further, the CC50 at 120 h in series [2] was more than 64 µM. Also, the selectivity ratio was more than 7.8 in series [3] and more than 10 in series [5]. The CC50 at 72 h in series [4] was more than 64 µM.

Consider `Oc1ncnc2[nH]ncc12` [ALLOPURINOL], for which the EC50 with Leishmania infantum [1] stood at 3.5 µM. The CC50 at 120 h in [2] was more than 64 µM. The selectivity ratio in series [3] is more than 18. Further, the CC50 at 72 h in series [4] was more than 64 µM.
